Patent US20070249655A1, “4-Substituted-1,5-Dihydro-Pyrido[3,2-B]Indol-2-Ones” (priority 2004, published 2007)
Like-named read-outs stand apart in the source and are kept apart here.

Key:
Format in all cases: cell-based
[1] = tested on: wild type laboratory HIV strain (HIV-1 strain LAI); test: Antiviral cellular assay (MT4 cells, MTT), wild type
Description: The compounds of the present invention were examined for anti-viral activity in a cellular assay. […] The cellular assay was performed according to the following procedure.
(§1) HIV- or mock-infected MT4 cells were incubated for five days in the presence of various concentrations of the inhibitor. At the end of the incubation period, the replicating virus in the control cultures has killed all HIV-infected cells in the absence of any inhibitor. Cell viability was determined by measuring the concentration of MTT, a yellow, water soluble tetrazolium dye that is converted to a purple, water insoluble formazan in the mitochondrial of living cells only. Upon solubilization of the resulting formazan crystals with isopropanol, the absorbance of the solution was monitored at 540 nm. The values correlate directly to the number of living cells remaining in the culture at the completion of the five day incubation. The inhibitory activity of the compound was monitored on the virus-infected cells and was expressed as EC50 and EC90. These values represent the amount of the compound required to protect 50% and 90%, respectively, of the cells from the cytopathogenic effect of the virus. The toxicity of the compound was measured on the mock-infected cells and was expressed as CC50, which represents the concentration of compound required to inhibit the growth of the cells by 50%. The selectivity index (SI) (ratio CC50/EC50) is an indication of the selectivity of the anti-HIV activity of the inhibitor. Wherever results are reported as e.g. pEC50 or pCC50 values, the result is expressed as the negative logarithm of the result expressed as EC50 or CC50 respectively.

HIV-2 = test: Antiviral cellular assay, HIV-2; conditions: Human immunodeficiency virus 2; read-out: pEC50 towards HIV-2 (converted)
Description: as §1, with “The toxicity of the compound was measured on the mock-infected cells and was expressed as CC50, which represents the concentration of compound required to inhibit the growth of the cells by 50%. The selectivity index (SI) (ratio CC50/EC50) is an indication of the selectivity of the anti-HIV activity of the inhibitor.” left out
(§2) Row WT: pEC50 against wild type HlV-LAI strain. The toxicity (Tox) is expressed as the pCC50 value as determined with mock transfected cells. ND means not determined.

[2] = tested on: HIV strain C (L100I; K103N); test: Antiviral cellular assay, mutant strain C
Description: as §1
(§3) Because of the increasing emergence of drug resistant HIV strains, the present compounds were also tested for their potency against clinically isolated HIV strains harbouring several mutations (Tables 1 and 7). These mutations are associated with resistance to reverse transcriptase inhibitors and result in viruses that show various degrees of phenotypic cross-resistance to the currently commercially available drugs such as for instance AZT, didanosine, nevirapine, lamivudine and zalcibatine.

HIV strain B (K103N) = test: Antiviral cellular assay, mutant strain B
Description: as §1, §3

[3] = tested on: HIV strain K (multi-mutant incl. M41L, D67N, K103N, Y181C, L210W, T215Y); test: Antiviral cellular assay, mutant strain K
Description: as §1, §3

HIV strain E (F227C) = test: Antiviral cellular assay, mutant strain E
Description: as §1, §3

[4] = tested on: HIV strain I (K101E, K103N); test: Antiviral cellular assay, mutant strain I
Description: as §1, §3

[5] = tested on: SIV (simian immunodeficiency virus); test: Antiviral cellular assay, SIV; conditions: read-out: pEC50 towards SIV (converted)
[6] = tested on: HIV strain J (I31L, L100I, K103N, E138G, Y181C, L214F); test: Antiviral cellular assay, mutant strain J
Description: as §1, §3

HIV strain A (Y181C) = test: Antiviral cellular assay, mutant strain A
Description: as §1, §3

in vitro = conditions: human
Description: as §1, with “The toxicity of the compound was measured on the mock-infected cells and was expressed as CC50, which represents the concentration of compound required to inhibit the growth of the cells by 50%. The selectivity index (SI) (ratio CC50/EC50) is an indication of the selectivity of the anti-HIV activity of the inhibitor.” left out
as §2

[7] = tested on: HIV strain G (V106A, F227L); test: Antiviral cellular assay, mutant strain G
Description: as §1, §3

HIV strain F (Y188L) = test: Antiviral cellular assay, mutant strain F
Description: as §1, §3

[8] = tested on: HIV strain H (K103N, Y181C); test: Antiviral cellular assay, mutant strain H
Description: as §1, §3

[9] = tested on: HIV strain D (L100I;K103N); test: Antiviral cellular assay, mutant strain D
Description: as §1, §3

[10] = Human immunodeficiency virus 1, MT4, read-out: EC50 value, wild-type HIV-LAI strain
[11] = Human immunodeficiency virus 1, WT, MT4 cells, read-out: pEC50 against wild type HIV-LAI strain (converted)
[12] = EC50 mutant / EC50 wild type, rounded to nearest integer

## N#Cc1cc2[nH]c3ccccc3c2n(-c2ccc(F)cc2)c1=O [Compound 37]
[1]; [10]
  EC50: > 32000 nM

## N#Cc1ccc(-n2c(=O)ccc3[nH]c4ccccc4c32)cc1 [Compound 93]
[1]; [10]
  EC50: 1000 to 32000 nM

## Cn1c2ccccc2c2c1cc(C(=N)NO)c(=O)n2-c1ccc([N+](=O)[O-])cc1 [Compound 70]
[1]; [10]
  EC50: 1000 to 32000 nM

## N#Cc1cc2[nH]c3ccccc3c2n(-c2ccc(Br)cc2)c1=O [Compound 38]
[1]; [10]
  EC50: 1000 to 32000 nM

## N#Cc1cc2c(c3ccccc3n2CC(=O)O)n(-c2ccc([N+](=O)[O-])cc2)c1=O [Compound 19]
[1]; [10]
  EC50: 1000 to 32000 nM

## Cn1c2ccccc2c2c1ccc(=O)n2-c1ccc(/C(N)=N/O)cc1 [Compound 97]
[1]; [10]
  EC50: 1000 to 32000 nM

## N#Cc1cc2c(c3ccccc3n2Cc2ccccc2)n(-c2ccc([N+](=O)[O-])cc2)c1=O [Compound 6]
[1]; [10]
  EC50: 1000 to 32000 nM

## Cn1c2ccccc2c2c1cc(C#N)c(=O)n2-c1ccc(N)cc1 [Compound 89]
[1]; [10]
  EC50: > 32000 nM

## O=C(O)c1ccc(-n2c(=O)ccc3[nH]c4ccccc4c32)cc1 [Compound 94]
[1]; [10]
  EC50: 1000 to 32000 nM

## CC(=O)CC1C(C#N)=C(N(C)C)N(c2ccc([N+](=O)[O-])cc2)c2c1n(C)c1ccccc21 (stereo not shown) [2-(dimethylamino)-4,5-dihydro-5-methyl-1-(4-nitrophenyl)-4-(2-oxopropyl)-1H-pyrido[3,2-b]indole-3-carbonitrile, reference compound]
[1]; [11]
  EC50: 3160 nM

## Cn1c2ccccc2c2c1ccc(=O)n2-c1ccc([N+](=O)[O-])cc1 [Compound 67]
[1]; [10]
  EC50: < 1000 nM

## O=c1ccc2[nH]c3ccccc3c2n1-c1ccc([N+](=O)[O-])cc1 [Compound 66]
[1]; [10]
  EC50: 1000 to 32000 nM

## Cn1c2ccccc2c2c1cc(C#N)c(=O)n2-c1ccc(F)cc1 [Compound 44]
[1]; [10]
  EC50: > 32000 nM

## N#Cc1cc2[nH]c3ccccc3c2n(-c2ccc([N+](=O)[O-])cc2)c1=O [Compound 1, 1-(4-nitro-phenyl)-2-oxo-2,5-dihydro-1H-pyrido[3,2-b]indole-3-carbonitrile]
HIV-2
  EC50: 6310 nM
[2]; [12]
  fold resistance, mutant C: (8)
[2]; Human immunodeficiency virus 1, read-out: pEC50 towards mutant C (converted)
  EC50: 2510 nM
[1]; [11]
  EC50: 316 nM
HIV strain B (K103N); [12]
  fold resistance, mutant B: (4)
HIV strain B (K103N); Human immunodeficiency virus 1, read-out: pEC50 towards mutant B (converted)
  EC50: 1260 nM
[3]; [12]
  fold resistance, mutant K: (1)
[3]; Human immunodeficiency virus 1, read-out: pEC50 towards mutant K (converted)
  EC50: 316 nM
HIV strain E (F227C); [12]
  fold resistance, mutant E: (6)
HIV strain E (F227C); Human immunodeficiency virus 1, read-out: pEC50 towards mutant E (converted)
  EC50: 2000 nM
[4]; [12]
  fold resistance, mutant I: (3)
[4]; Human immunodeficiency virus 1, read-out: pEC50 towards mutant I (converted)
  EC50: 794 nM
[5]
  EC50: 7940 nM
[6]; [12]
  fold resistance, mutant J: (5)
[6]; Human immunodeficiency virus 1, read-out: pEC50 towards mutant J (converted)
  EC50: 1580 nM
HIV strain A (Y181C); [12]
  fold resistance, mutant A: (8)
HIV strain A (Y181C); Human immunodeficiency virus 1, read-out: pEC50 towards mutant A (converted)
  EC50: 2510 nM
In vitro
  CC50 at 5 days: > 32400 nM
[7]; [12]
  fold resistance, mutant G: (2)
[7]; Human immunodeficiency virus 1, read-out: pEC50 towards mutant G (converted)
  EC50: 631 nM
HIV strain F (Y188L); [12]
  fold resistance, mutant F: (4)
HIV strain F (Y188L); Human immunodeficiency virus 1, read-out: pEC50 towards mutant F (converted)
  EC50: 1260 nM
[8]; [12]
  fold resistance, mutant H: (5)
[8]; Human immunodeficiency virus 1, read-out: pEC50 towards mutant H (converted)
  EC50: 1580 nM
[9]; [12]
  fold resistance, mutant D: (3)
[9]; Human immunodeficiency virus 1, read-out: pEC50 towards mutant D (converted)
  EC50: 1000 nM

## Cn1c2ccccc2c2c1cc(C#N)c(=O)n2-c1ccc(C#N)cc1 [Compound 46]
[1]; [10]
  EC50: 1000 to 32000 nM
